Reference: patent US20230106032A1, “IMIDAZOTRIAZINES ACTING ON CANCER VIA INHIBITION OF CDK12” (Bayer Aktiengesellschaft, priority 2020, published 2023)

How the values were obtained:
[1] = biological target: T1, CDK2/CycE (Homo sapiens, UniProt P24941); test: CDK2/CycE kinase assay (TR-FRET, 2 mM ATP); type: biochemical; settings: read-out: CDK2/CyclinE, 2 mM ATP (high ATP) IC50-[mol/l] (median)
T1 construct: purchased ProQinase GmbH (Freiburg, Germany); host or cells: insect cells (Sf9)
Text: CDK2/CycE-inhibitory activity of compounds of the present invention was quantified employing the CDK2/CycE TR-FRET assay as described in the following paragraphs.
Recombinant fusion proteins of GST and human CDK2 and of GST and human CycE, expressed in insect cells (Sf9) and purified by Glutathion-Sepharose affinity chromatography, were purchase from ProQinase GmbH (Freiburg, Germany). As substrate for the kinase reaction biotinylated peptide biotin-Ttds-YISPLKSPYKISEG (C-terminus in amid form) was used which can be purchased e.g. form the company JERINI peptide technologies (Berlin, Germany).
For the assay 50 nanoL of a 100 fold concentrated solution of the test compound in DMSO was pipetted into a black low volume 384 well microtiter plate or a black 1536 well microtiter plate (both Greiner Bio-One, Frickenhausen, Germany), 2 microL of a solution of CDK2/CycE in aqueous assay buffer [50 millimol/L Tris/HCl pH 8.0, 10 millimol/L MgCl2, 1.0 millimol/L dithiothreitol, 0.1 millimol/L sodium ortho-vanadate, 0.01% (v/v) Nonidet-P40 (Sigma)] were added and the mixture was incubated for 15 min at 22° C. to allow pre-binding of the test compounds to the enzyme before the start of the kinase reaction. Then the kinase reaction was started by the addition of 3 microL of a solution of adenosine-tri-phosphate (ATP, 3.33 millimol/L=> final conc. in the 5 microL assay volume is 2 millimol/L) and substrate (1.25 micromol/L=> final conc. in the 5 microL assay volume is 0.75 micromol/L) in assay buffer and the resulting mixture was incubated for a reaction time of 25 min at 22° C. The concentration of CDK2/CycE was adjusted depending of the activity of the enzyme lot and was chosen appropriate to have the assay in the linear range, typical concentrations were in the range of 10 ng/ml. The reaction was stopped by the addition of 3 microL of a solution of TR-FRET detection reagents (0.333 micromol/L streptavidine-XL665 [Cisbio Bioassays, Codolet, France] and 1.67 nanomol/L anti-RB(pSer807/pSer8l 1)-antibody from BD Pharmingen [#558389] and 2 nanomol/L LANCE EU-W1024 labeled anti-mouse IgG antibody [Perkin-Elmer, product no. AD0077, as an alternative a Terbium-cryptate-labeled anti-mouse IgG antibody from Cisbio Bioassays can be used]) in an aqueous EDTA-solution (167 millimol/L EDTA, 0.2% (w/v) bovine serum albumin in 100 millimol/L HEPES pH 7.5).
The resulting mixture was incubated 1 h at 22° C. to allow the formation of complex between the phosphorylated biotinylated peptide and the detection reagents. Subsequently the amount of phosphorylated substrate was evaluated by measurement of the resonance energy transfer from the Eu-chelate to the streptavidine-XL. Therefore, the fluorescence emissions at 620 nm and 665 nm after excitation at 350 nm was measured in a TR-FRET reader, e.g. a Pherastar (BMG Labtechnologies, Offenburg, Germany) or a Viewlux (Perkin-Elmer). The ratio of the emissions at 665 nm and at […] was taken as the measure for the amount of phosphorylated substrate. The data were normalised (enzyme reaction without inhibitor=0% inhibition, all other assay components but no enzyme=100% inhibition).

[2] = system: BRCA1 mRNA expression in MDA-MB-231 cells; test: qRT-PCR assay: inhibition of BRCA1 mRNA expression in MDA-MB-231 cells; type: cell-based; settings: Homo sapiens, 24 h exposure, normalised to GAPDH, read-out: RTqPCR-MDA-MB-231 IC50 [mol/l] BRCA1 (median)
Procedure: Tissue cultured human MDA-MB-231 human breast cancer cells were plated in 500 microL per well at 200,000 cells/well in a 24 well microtiter plate. After 24 h, the cells were exposed continuously for 24 h to test substances (substances were added with Tecan HP D300 Dispenser). RNA was prepared using Qiagen RNeasy MiniKit (#74106), RNA was quantified using a NanoDrop Equipment, and 600 nano gamms of RNA was converted to cDNA using a SuperScript VILO kit (Thermofisher #11755050) followed by qPCR amplification. BRCA1 and ATR gene expression was measured by RT-qPCR and normalised to GAPDH housekeeping gene expression. qPCR primer sets have been purchased from Thermo Fisher Scientific/Applied Biosystems: BRCA1, #Hs 01556193; ATR, #Hs 00992123; GAPDH, #Hs 03929097.

[3] = biological target: T2, CDK12 (Homo sapiens, UniProt Q9NYV4); test: CDK12 protein level in CAL-120 cells (Protein Simple); type: cell-based; settings: 18 h, CDK12/HSP90 peak area ratio, read-out: CDK12 protein level in CAL-120 breast ca cells DC50-[mol/l] (median)
T2 construct: endogenous in cells; host or cells: CAL-120 human breast cancer cells (DSMZ ACC 459)
T2 sequence (Q9NYV4 whole entry): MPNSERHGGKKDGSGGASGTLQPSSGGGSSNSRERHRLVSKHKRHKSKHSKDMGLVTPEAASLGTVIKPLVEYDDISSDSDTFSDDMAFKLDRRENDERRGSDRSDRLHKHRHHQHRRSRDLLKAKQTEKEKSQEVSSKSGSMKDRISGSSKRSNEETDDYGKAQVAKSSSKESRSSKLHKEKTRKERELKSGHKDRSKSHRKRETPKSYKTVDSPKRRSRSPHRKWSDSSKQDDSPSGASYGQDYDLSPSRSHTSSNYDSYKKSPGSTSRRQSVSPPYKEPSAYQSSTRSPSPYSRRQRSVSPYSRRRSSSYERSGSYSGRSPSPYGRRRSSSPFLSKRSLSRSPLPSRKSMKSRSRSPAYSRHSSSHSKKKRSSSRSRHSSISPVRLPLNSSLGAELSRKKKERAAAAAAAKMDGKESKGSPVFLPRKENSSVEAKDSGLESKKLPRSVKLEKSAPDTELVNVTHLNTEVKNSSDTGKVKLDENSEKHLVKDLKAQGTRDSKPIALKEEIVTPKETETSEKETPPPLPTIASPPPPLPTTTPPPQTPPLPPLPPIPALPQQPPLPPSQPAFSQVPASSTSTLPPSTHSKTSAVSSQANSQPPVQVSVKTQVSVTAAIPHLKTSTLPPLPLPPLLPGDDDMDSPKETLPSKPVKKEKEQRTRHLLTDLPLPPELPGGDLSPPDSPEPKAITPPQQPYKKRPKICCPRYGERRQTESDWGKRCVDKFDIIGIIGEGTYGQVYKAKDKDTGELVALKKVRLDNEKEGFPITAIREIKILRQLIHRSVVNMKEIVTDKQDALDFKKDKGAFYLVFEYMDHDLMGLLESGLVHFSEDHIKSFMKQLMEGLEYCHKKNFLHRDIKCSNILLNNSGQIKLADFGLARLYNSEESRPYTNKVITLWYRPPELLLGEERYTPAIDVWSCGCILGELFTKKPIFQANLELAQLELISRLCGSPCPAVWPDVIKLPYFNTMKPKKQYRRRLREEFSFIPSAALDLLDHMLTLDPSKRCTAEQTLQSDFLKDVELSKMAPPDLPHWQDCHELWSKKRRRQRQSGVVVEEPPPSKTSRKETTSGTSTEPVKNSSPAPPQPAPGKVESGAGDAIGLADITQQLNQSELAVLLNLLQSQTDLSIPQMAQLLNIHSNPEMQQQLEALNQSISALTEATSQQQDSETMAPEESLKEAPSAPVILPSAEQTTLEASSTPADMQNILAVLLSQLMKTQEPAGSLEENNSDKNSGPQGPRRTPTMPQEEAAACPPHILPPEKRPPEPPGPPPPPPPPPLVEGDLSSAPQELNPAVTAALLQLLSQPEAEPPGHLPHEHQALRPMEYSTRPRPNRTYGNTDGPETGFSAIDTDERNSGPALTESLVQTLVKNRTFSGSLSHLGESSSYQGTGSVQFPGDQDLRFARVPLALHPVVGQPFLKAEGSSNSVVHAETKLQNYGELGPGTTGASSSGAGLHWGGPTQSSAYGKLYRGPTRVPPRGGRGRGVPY
T2 sequence (O75909 whole entry partner): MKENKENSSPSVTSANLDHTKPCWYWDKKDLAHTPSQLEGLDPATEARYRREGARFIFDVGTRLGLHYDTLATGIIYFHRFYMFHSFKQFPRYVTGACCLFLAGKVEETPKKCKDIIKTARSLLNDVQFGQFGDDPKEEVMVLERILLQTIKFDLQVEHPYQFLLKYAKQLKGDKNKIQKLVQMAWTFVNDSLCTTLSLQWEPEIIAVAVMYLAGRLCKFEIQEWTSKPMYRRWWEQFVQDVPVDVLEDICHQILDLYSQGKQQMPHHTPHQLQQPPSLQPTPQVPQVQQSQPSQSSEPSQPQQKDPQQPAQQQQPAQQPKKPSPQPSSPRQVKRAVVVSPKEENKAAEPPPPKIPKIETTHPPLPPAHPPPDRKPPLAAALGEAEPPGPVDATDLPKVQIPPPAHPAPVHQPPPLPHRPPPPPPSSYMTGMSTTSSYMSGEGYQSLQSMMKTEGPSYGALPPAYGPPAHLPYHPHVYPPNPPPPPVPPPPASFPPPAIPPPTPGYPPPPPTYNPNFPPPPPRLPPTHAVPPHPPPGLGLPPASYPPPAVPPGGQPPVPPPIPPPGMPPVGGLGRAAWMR
Procedure: CAL-120 human breast cancer cells (DSMZ ACC 459) were seeded at 300,000 cells/well in 6-well plates containing 2 mL of growth medium (DMEM, 10% FCS, glutamine) and incubated for 24 h at 37° C. in an humidified incubator. Test compounds were added at various concentrations, control wells received solvent (DMSO), and the plates were incubated for another 18 h at 37° C. Cells were washed 2 times with PBS and lysed in 75 microL lysis buffer (MSD-Puffer (MSD, #R^60TX-2), +1% SDS+PhosSTOP (Roche #04906837001)+ complete mini (Roche #04693159001)) by scraping. The lysates were pushed 2 times through Qiashedders followed by centrifugation at 14,000 rpm for 30-50 sec. The supernatant was stored at −20° C. […] CDK12 and HSP90 (loading control) were detected using anti-human CDK12 antibody (Cell Signaling Technologies (CST) #11793) at 1:25 dilution and anti-human HSP90 antibody (CST #4877) at 1:5,000 dilution. CDK12 and HSP90 peak areas were determined using Protein Simple Compass software. Ratio of CDK12/HSP90 peak areas were calculated for each sample, and DC50 values (degrading concentration to achieve 50% reduction relative to vehicle treated control) were determined by means of a 4 parameter fit.

Row | IC50 [1] | DC50 [3] | Compound | IC50 [2]
1 | 11700 nM | < 3 nM | Brc1cnc2c(NCc3nc4ccccc4[nH]3)nc(N3CCOCC3)nn12 [Example 1, N-[(1H-benzimidazol-2-yl)methyl]-7-bromo-2-(morpholin-4-yl)imidazo[2,1-f][1,2,4]triazin-4-amine] | 10 nM
2 | > 20000 nM | 5.81 nM | N#Cc1cnc2c(NCc3nc4ccccc4[nH]3)nc(N3CCOCC3)nn12 [Example 2, 4-{[(1H-benzimidazol-2-yl)methyl]amino}-2-(morpholin-4-yl)imidazo[2,1-f][1,2,4]triazine-7-carbonitrile] | 11.1 nM
3 | > 20000 nM | – | CN1CCN(c2nc(NCc3nc4ccccc4[nH]3)c3ncc(C(F)(F)F)n3n2)CC1 [Example 25, N-[(1H-benzimidazol-2-yl)methyl]-2-(4-methylpiperazin-1-yl)-7-(trifluoromethyl)imidazo[2,1-f][1,2,4]triazin-4-amine] | 8.65 nM
4 | > 19400 nM | – | FC(F)(F)c1cnc2c(NCc3nc4ccccc4[nH]3)nc(N3CCOCC3)nn12 [Example 26, N-[(1H-benzimidazol-2-yl)methyl]-2-(morpholin-4-yl)-7-(trifluoromethyl)imidazo[2,1-f][1,2,4]triazin-4-amine] | 3.64 nM
5 | > 20000 nM | – | Fc1ccc2[nH]c(CNc3nc(N4CCOCC4)nn4c(C(F)(F)F)cnc34)nc2c1F [Example 27, N-[(4,5-difluoro-1H-benzimidazol-2-yl)methyl]-2-(morpholin-4-yl)-7-(trifluoromethyl)imidazo[2,1-f][1,2,4]triazin-4-amine] | 1.05 nM
6 | > 20000 nM | – | CN1CCN(c2nc(NCc3nc4c(F)c(F)ccc4[nH]3)c3ncc(C(F)(F)F)n3n2)CC1 [Example 28, N-[(4,5-difluoro-1H-benzimidazol-2-yl)methyl]-2-(4-methylpiperazin-1-yl)-7-(trifluoromethyl)imidazo[2,1-f][1,2,4]triazin-4-amine] | 0.242 nM
7 | > 20000 nM | – | C[C@@H]1CN(c2nc(NCc3nc4c(F)c(F)ccc4[nH]3)c3ncc(C(F)(F)F)n3n2)C[C@H](C)N1 [Example 29, N-[(4,5-difluoro-1H-benzimidazol-2-yl)methyl]-2-[rel-(3R,5S)-3,5-dimethylpiperazin-1-yl]-7-(trifluoromethyl)imidazo[2,1-f][1,2,4]triazin-4-amine] | 1.05 nM
8 | 4780 nM | – | CN(CC(C)(C)O)c1nc(NCc2nc3ccccc3[nH]2)c2ncc(C(F)(F)F)n2n1 [Example 30, 1-[{4-[(1H-benzimidazol-2-ylmethyl)amino]-7-(trifluoromethyl)imidazo[2,1-f][1,2,4]triazin-2-yl}(methyl)amino]-2-methylpropan-2-ol] | 7.23 nM
